Data: patent publication US10329302B2, “Bicyclic-fused heteroaryl or aryl compounds” (Pfizer Inc., priority 2014, dated 2019)
pIC50: −log10 of the molar value.

Key:
[1] = test system: R848-induced TNFα production by human peripheral blood mononuclear cells (PBMCs); assay: R848 Induced TNFα in Human PBMC Assay; type: cell-based; settings: Homo sapiens, PBMC, 3 h, read-out: R848-induced TNFa PBMC IC50 (nM)
[2] = biological target: human IRAK4 FL (Full Length) (Homo sapiens (Human), UniProt Q9NWZ3); assay: IRAK4 Enzymatic DELFIA Assay, Protocol A; type: biochemical; settings: human IRAK4 FL, 0.6 mM ATP (KM); read-out: IRAK4 DELFIA Protocol A IC50
human IRAK4 FL (Full Length), sequence (Q9NWZ3 whole entry): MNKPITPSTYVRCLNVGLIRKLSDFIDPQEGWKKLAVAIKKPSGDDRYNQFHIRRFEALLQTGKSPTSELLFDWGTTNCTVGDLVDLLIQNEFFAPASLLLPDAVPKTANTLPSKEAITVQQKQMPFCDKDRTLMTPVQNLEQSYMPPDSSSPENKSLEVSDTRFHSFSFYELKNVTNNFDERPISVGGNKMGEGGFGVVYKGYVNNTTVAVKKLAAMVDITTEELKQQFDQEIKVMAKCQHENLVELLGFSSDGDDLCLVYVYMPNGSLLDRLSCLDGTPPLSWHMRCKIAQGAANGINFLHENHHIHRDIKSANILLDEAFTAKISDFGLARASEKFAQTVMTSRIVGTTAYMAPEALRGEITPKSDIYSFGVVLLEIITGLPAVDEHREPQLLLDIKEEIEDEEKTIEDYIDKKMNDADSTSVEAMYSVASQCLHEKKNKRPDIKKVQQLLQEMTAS

Compound | IC50 [1] [nM] | pIC50 [2]
COc1cc2c(OC[C@@H]3C[C@](C)(F)C(=O)N3)nccc2cc1C(N)=O [Example 177, 1-{[(2S,4S)-4-fluoro-4-methyl-5-oxopyrrolidin-2-yl]methoxy}-7-methoxyisoquinoline-6-carboxamide] | 43 | 8.42
CC(C)Oc1cc2c(OC[C@@H]3C[C@@H](F)C(=O)N3)nccc2cc1C(N)=O [Example 144, 1-{[(2S,4R)-4-fluoro-5-oxopyrrolidin-2-yl]methoxy}-7-(propan-2-yloxy)isoquinoline-6-carboxamide] | 141 | 8.85
C=C[C@@H]1CC(=O)N[C@@H]1COc1nccc2cc(C(N)=O)c(OC)cc12 [Example 251, 1-{[(2S,3S)-3-ethenyl-5-oxopyrrolidin-2-yl]methoxy}-7-methoxyisoquinoline-6-carboxamide] | 72 | 8.47
COc1cc2c(OC[C@H]3NC(=O)[C@H]4[C@@H]3[C@@]4(C)F)nccc2cc1C(N)=O [Example 336, 1-{[(1S,2S,5R)-6-fluoro-6-methyl-4-oxo-3-azabicyclo[3.1.0]hex-2-yl]methoxy}-7-methoxyisoquinoline-6-carboxamide] | 674 | 9.52
COC[C@H]1[C@@H](COc2nccc3cc(C(N)=O)c(OC)cc23)NC(=O)C1(F)F [Example 347, 1-{[(2S,3R)-4,4-difluoro-3-(methoxymethyl)-5-oxopyrrolidin-2-yl]methoxy}-7-methoxyisoquinoline-6-carboxamide] | 27 | 9.22
CCOc1cc2c(OC[C@@H]3C[C@](C)(F)C(=O)N3)nccc2cc1C(N)=O [Example 278, 7-ethoxy-1-{[(2S,4S)-4-fluoro-4-methyl-5-oxopyrrolidin-2-yl]methoxy}isoquinoline-6-carboxamide] | 299 | 8.07
CC(C)Oc1cc2c(OC[C@@H]3CC(F)(F)C(=O)N3)nccc2cc1C(N)=O [Example 128, 1-{[(2S)-4,4-difluoro-5-oxopyrrolidin-2-yl]methoxy}-7-(propan-2-yloxy)isoquinoline-6-carboxamide] | 27 | 9.52
COC[C@H]1[C@@H](COc2nccc3cc(C(N)=O)c(OC)cc23)NC(=O)[C@@H]1F [Example 351, 1-{[(2S,3R,4R)-4-fluoro-3-(methoxymethyl)-5-oxopyrrolidin-2-yl]methoxy}-7-methoxyisoquinoline-6-carboxamide] | 213 | 8.20
CC[C@@H]1[C@H](O)C(=O)N[C@@H]1COc1nccc2cc(C(N)=O)c(OC)cc12 [Example 352, 1-{[(2S,3S,4S)-3-ethyl-4-hydroxy-5-oxopyrrolidin-2-yl]methoxy}-7-methoxyisoquinoline-6-carboxamide] | 557 | 8.48
CC(C)Oc1cc2c(OC[C@@H]3CCC(=O)N3)ncc(F)c2cc1C(N)=O [Example 168, 4-fluoro-1-{[(2S)-5-oxopyrrolidin-2-yl]methoxy}-7-(propan-2-yloxy)isoquinoline-6-carboxamide] | 1460 | 8.18
COc1cc2c(OC[C@H]3NC(=O)C[C@H]3CCF)nccc2cc1C(N)=O [Example 355, 1-{[(2S,3S)-3-(2-fluoroethyl)-5-oxopyrrolidin-2-yl]methoxy}-7-methoxyisoquinoline-6-carboxamide] | 33 | 8.77
CC(C)Oc1cc2c(OC[C@@H]3CNC(=O)N3)nccc2cc1C(N)=O [Example 202, 1-{[(4S)-2-oxoimidazolidin-4-yl]methoxy}-7-(propan-2-yloxy)isoquinoline-6-carboxamide] | 922 | 7.07
COCC1C[C@@H](COc2nccc3cc(C(N)=O)c(OC(C)C)cc23)NC1=O (stereo partly drawn) [Example 127, 1-{[(2S)-4-(methoxymethyl)-5-oxopyrrolidin-2-yl]methoxy}-7-(propan-2-yloxy)isoquinoline-6-carboxamide] | 682 | 7.19
